The target in one test is T1, SIK3 (Homo sapiens, UniProt Q9Y2K2).
T1 construct: GST; made in house; host or cells: HEK293 cells
The test is described as follows: Kinase assay, IC50 curve. It counts as biochemical. The conditions noted are these: read-out: IC50 against SIK3.

A further test concerns the target BRK (Homo sapiens, UniProt Q13882). The test is described as follows: Kinase profiling. It counts as biochemical.
For test [1], the target named is T2, BTK (Homo sapiens, UniProt Q06187). As to the kind of experiment: Kinase profiling. Format: biochemical.
A further test addresses CSK (Homo sapiens, UniProt P41240). The test is described as follows: Kinase profiling. Format: biochemical.
The next test addresses EPH-B2 (Homo sapiens, UniProt P29323). The test is described as follows: Kinase profiling. Format: biochemical.
Another test has as its target EPH-B4 (Homo sapiens, UniProt P54760). The test is described as follows: Kinase profiling. Format: biochemical.
For a further test, the target named is IGF-1R (Homo sapiens, UniProt P08069). The test is described as follows: Kinase profiling. Format: biochemical.
IGF-1R, sequence (P08069 31-1367): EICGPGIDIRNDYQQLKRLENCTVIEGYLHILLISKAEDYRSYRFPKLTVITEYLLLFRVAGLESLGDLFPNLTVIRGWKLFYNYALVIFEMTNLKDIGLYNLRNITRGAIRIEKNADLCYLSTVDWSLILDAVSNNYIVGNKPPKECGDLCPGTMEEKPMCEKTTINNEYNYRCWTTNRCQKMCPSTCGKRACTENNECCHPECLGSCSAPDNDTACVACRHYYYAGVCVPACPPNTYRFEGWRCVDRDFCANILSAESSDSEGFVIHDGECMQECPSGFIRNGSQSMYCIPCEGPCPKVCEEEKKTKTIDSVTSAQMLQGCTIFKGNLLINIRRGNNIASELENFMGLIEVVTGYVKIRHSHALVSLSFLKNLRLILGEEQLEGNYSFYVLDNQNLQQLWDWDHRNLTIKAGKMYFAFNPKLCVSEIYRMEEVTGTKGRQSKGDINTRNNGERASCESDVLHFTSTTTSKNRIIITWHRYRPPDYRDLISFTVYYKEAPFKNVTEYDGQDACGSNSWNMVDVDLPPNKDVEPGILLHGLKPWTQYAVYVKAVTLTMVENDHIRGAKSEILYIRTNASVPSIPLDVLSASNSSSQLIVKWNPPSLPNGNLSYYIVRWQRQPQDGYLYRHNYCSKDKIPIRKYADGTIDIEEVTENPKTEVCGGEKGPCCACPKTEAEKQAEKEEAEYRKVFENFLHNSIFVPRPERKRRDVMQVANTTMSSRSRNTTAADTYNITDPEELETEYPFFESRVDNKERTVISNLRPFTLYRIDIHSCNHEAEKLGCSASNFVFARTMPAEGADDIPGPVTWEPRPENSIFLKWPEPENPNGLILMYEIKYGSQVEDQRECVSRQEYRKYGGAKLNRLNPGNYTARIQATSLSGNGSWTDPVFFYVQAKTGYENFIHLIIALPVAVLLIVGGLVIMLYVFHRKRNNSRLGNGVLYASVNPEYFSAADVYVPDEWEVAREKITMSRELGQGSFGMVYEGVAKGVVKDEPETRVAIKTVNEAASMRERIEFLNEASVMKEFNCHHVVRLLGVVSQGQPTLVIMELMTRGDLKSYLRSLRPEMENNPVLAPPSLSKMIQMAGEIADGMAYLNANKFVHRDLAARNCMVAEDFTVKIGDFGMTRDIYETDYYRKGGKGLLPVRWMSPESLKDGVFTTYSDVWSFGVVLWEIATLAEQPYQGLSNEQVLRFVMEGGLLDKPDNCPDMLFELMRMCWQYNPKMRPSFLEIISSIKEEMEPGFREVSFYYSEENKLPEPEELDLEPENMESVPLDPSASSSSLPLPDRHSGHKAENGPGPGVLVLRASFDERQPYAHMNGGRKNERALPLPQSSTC
In the next test the target is T3, IRAK4 (Homo sapiens, UniProt Q9NWZ3).
T3 sequence (Q9NWZ3 1-460): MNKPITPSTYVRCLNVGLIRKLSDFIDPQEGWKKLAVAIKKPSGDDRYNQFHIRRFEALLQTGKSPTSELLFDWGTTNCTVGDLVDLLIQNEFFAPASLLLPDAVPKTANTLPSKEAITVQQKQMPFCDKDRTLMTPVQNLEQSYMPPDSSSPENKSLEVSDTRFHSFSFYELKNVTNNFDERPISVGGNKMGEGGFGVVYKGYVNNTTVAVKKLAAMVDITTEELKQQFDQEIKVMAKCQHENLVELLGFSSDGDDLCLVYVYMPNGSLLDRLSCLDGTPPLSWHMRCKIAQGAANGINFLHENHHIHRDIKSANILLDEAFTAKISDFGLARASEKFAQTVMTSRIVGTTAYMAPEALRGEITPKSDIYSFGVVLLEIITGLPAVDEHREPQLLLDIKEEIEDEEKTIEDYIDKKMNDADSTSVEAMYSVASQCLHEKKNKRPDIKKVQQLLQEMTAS
As to the kind of experiment: Kinase profiling. It counts as biochemical.

A further test has as its target Lck (Homo sapiens, UniProt P06239). The test is described as follows: Kinase profiling. Format: biochemical.
Another test deals with PHK (Homo sapiens, UniProt Q16816). The test is described as follows: Kinase profiling. It counts as biochemical.
PHK, sequence (Q16816 whole entry): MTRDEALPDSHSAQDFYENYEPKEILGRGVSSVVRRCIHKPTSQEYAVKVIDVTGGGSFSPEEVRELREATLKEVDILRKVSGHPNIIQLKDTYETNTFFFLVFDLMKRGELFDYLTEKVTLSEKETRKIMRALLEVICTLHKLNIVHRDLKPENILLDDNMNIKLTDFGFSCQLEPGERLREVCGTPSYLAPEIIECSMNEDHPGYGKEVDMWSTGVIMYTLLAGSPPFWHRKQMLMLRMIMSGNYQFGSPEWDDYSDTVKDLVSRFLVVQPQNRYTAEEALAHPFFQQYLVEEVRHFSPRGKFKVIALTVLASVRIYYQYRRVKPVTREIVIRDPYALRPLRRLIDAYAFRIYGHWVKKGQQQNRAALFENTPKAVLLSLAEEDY
For another test, the target named is PKD1 (Homo sapiens, UniProt Q15139). As to the kind of experiment: Kinase profiling. It counts as biochemical.
The target in another test is Src (Homo sapiens, UniProt P12931). The test is described as follows: Kinase profiling. Format: biochemical.
Src, sequence (P12931 whole entry): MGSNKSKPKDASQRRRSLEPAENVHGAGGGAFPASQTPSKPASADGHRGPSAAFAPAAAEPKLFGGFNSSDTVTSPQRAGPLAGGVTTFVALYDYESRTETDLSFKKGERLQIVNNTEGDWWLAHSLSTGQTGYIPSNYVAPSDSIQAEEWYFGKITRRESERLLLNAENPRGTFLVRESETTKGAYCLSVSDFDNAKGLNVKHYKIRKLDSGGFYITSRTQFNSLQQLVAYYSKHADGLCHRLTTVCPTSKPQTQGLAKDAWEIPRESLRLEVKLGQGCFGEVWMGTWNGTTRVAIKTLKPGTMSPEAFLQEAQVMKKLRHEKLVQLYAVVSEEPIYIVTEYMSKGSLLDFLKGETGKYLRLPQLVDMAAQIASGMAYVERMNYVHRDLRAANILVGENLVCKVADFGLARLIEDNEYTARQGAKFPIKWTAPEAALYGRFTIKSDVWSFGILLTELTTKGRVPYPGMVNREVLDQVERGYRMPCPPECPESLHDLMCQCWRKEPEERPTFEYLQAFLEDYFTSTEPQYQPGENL
For the next test, the target named is STK33 (Homo sapiens, UniProt Q9BYT3). The test is described as follows: Kinase profiling. Format: biochemical.
STK33, sequence (Q9BYT3 whole entry): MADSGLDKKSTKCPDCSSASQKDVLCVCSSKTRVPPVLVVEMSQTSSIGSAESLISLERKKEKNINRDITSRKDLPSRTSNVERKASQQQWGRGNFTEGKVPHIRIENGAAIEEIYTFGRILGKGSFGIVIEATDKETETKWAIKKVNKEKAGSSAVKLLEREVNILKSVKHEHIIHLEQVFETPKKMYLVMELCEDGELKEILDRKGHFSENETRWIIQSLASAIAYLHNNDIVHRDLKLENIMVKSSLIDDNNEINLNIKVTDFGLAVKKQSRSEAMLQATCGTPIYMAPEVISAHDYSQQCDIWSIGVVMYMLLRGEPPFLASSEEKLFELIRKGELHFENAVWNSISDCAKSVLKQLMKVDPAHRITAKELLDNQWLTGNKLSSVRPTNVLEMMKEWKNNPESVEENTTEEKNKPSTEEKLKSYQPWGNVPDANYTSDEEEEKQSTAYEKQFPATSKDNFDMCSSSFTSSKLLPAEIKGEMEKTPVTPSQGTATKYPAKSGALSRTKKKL
Another test addresses TGFBR1 (Homo sapiens, UniProt P36897). As to the kind of experiment: Kinase profiling. Format: biochemical.
For the next test, the target named is YES1 (Homo sapiens, UniProt P07947). The test is described as follows: Kinase profiling. It counts as biochemical.
YES1, sequence (P07947 whole entry, the tested form may be a part): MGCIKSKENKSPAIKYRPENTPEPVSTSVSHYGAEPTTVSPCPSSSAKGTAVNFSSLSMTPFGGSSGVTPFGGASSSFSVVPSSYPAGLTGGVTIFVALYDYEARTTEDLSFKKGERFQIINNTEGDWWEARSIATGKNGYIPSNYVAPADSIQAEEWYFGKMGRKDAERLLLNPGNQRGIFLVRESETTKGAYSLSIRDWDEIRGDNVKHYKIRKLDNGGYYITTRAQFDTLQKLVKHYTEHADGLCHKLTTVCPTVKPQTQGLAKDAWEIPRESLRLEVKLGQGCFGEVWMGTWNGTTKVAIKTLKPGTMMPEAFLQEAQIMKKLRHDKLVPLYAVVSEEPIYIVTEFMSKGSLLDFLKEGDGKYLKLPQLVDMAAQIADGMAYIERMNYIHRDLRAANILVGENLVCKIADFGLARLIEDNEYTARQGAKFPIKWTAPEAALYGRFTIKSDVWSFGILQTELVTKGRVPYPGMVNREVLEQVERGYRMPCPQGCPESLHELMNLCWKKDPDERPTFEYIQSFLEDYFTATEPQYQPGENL
In test [2] the target is T2, BTK. As to the kind of experiment: Kinase assay, IC50 curve. It counts as biochemical. More on the design: BTK (amino acids 2–659); His6 (N); made in house; host or cells: Sf9 insect cells. The note with it: read-out: IC50 against BTK.

CSK, sequence (P41240 whole entry): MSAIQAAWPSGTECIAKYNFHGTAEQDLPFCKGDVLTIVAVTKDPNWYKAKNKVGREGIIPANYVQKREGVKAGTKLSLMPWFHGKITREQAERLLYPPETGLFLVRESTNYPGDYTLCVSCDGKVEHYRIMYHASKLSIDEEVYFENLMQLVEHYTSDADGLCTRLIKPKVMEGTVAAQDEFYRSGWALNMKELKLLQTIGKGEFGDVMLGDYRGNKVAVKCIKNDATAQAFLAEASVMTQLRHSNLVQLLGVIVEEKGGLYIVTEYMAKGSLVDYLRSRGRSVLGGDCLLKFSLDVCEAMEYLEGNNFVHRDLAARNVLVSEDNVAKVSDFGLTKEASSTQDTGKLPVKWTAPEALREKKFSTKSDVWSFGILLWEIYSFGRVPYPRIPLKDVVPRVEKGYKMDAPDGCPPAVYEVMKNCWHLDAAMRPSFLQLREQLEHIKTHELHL
Lck, sequence (P06239 whole entry): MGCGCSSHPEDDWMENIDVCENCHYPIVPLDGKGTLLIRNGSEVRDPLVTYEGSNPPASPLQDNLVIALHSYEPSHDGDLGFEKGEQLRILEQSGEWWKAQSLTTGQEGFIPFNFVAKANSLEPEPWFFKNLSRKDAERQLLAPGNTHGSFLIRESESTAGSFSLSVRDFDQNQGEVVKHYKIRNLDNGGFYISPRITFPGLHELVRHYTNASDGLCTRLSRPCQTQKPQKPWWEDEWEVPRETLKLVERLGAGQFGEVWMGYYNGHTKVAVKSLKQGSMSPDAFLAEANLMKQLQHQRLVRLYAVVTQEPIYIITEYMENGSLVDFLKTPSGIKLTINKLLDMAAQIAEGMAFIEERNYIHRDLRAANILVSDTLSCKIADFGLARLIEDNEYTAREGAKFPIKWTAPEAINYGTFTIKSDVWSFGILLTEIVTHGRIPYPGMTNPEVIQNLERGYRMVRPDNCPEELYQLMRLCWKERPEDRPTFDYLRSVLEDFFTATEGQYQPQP
BRK, sequence (Q13882 whole entry): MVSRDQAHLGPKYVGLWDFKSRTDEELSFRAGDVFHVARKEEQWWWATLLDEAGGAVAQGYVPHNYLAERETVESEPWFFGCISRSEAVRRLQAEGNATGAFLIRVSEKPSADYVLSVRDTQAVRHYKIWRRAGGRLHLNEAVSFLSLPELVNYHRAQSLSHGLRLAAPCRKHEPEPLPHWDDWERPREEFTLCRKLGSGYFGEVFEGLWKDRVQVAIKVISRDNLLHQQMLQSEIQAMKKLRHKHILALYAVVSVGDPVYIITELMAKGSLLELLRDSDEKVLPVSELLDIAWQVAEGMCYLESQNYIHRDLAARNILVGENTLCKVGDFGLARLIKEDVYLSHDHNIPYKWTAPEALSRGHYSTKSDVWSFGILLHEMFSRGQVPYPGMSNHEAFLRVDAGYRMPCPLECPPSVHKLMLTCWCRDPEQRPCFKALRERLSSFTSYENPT

With `COc1cc(Nc2c(C#N)cnc3cc(OCCCN4CCN(C)CC4)c(OC)cc23)c(Cl)cc1Cl` [Bosutinib, bosutinib], the half-inhibitory concentration (IC50) turned out to be 18 nM at SIK3 and 15 nM on BTK [2]. Besides, the remaining activity at 0.1 µM on BRK (0.1 µM) was 88 ± 11%; at BTK [1] (0.1 µM) it was 1%; on CSK, 65 ± 7%; at EPH-B2 (0.1 µM), 1 ± 1%; on EPH-B4 (0.1 µM) it was 10%; at IGF-1R, 89 ± 8%. Also, the remaining activity at 0.1 µM at IRAK4 was 55 ± 3%; at Lck (0.1 µM), 1%; on PHK (0.1 µM) it was 55%; at PKD1 it was 89 ± 2%; on Src (0.1 µM), 1%; on STK33 (0.1 µM), 34%. In addition, the remaining activity at 0.1 µM on TGFBR1 (0.1 µM) was determined as 87 ± 14%; at YES1 (0.1 µM) it was 2 ± 1%. Moreover, the remaining activity at 1 µM on BRK (1 µM) is 48%; on BTK [1] (1 µM), 1%; at CSK it was 4%; at EPH-B2 (1 µM), 0%; at EPH-B4 (1 µM), 2%; at IGF-1R it was 79 ± 4%. Moreover, the remaining activity at 1 µM amounted to 23% at IRAK4; 1% on Lck (1 µM); 12% at PHK (1 µM); 1% on Src (1 µM); 17 ± 4% at STK33 (1 µM); 101 ± 6% at TGFBR1 (1 µM). For the same compound, the remaining activity at 1 µM at YES1 (1 µM) is 1%. Further, the “Activity of Bcr-Abl, Src and Btk in primary mouse macrophages” value with Bcr-Abl, Src and Btk is reported as “completely blocking”.

Consider `Cc1nc(Nc2ncc(C(=O)Nc3c(C)cccc3Cl)s2)cc(N2CCN(CCO)CC2)n1` [Dasatinib], for which the remaining activity at 0.1 µM on CSK amounted to 97 ± 19%; at IGF-1R, 107 ± 6%; on IRAK4, 112 ± 24%. Besides, the values for the remaining activity at 1 µM at CSK, on IGF-1R and at IRAK4 were 8 ± 3%, 98 ± 7% and 102 ± 6%, respectively.

The values above are taken from paper PMC4286194 (Biochemical Journal, 2015).
